Like-named read-outs stand apart in the source and are kept apart here.
Tested on: Hordeum vulgare (spring barley)
Type: in vivo
Conditions: HORVS
Text: Greenhouse Trial Methodology—Evaluation of Postemergence Herbicidal Effect
Seeds of the desired test plant species were planted in a 90:10% v/v (volume/volume) mixture of PRO-MIX® BX (Premier Tech Horticulture, Quakertown, Pa., USA) and PROFILE® GREENS GRADE™ (Profile Products LLC, Buffalo Grove, Ill., USA) planting mixture, which typically has a pH of 5.2 to 6.2 and an organic matter content of at least 50 percent, in plastic pots with a surface area of 103.2 square centimeters (cm^2). In some aspects, to help ensure good germination and healthy plants, a fungicide treatment and/or other chemical or physical treatment was applied. The plants were grown for 7-36 days (d) in a greenhouse with an approximate 14-hour (h) photoperiod which was maintained at about 23° C. during the day and 22° C. during the night. Nutrients and water were added on a regular basis and supplemental lighting was provided with overhead metal halide 1000-Watt lamps as necessary. The plants were employed for testing when they reached the second or third true leaf stage.
Emulsifiable concentrates of each of each pyridine carboxylate herbicide (Compound A or Compound B) were prepared at 100 grams acid equivalent per liter (g ae/L). The emulsifiable concentrates also included a safener, at 120 grams active ingredient per liter (g ai/L). An aliquot of each emulsifiable concentrate was placed in a 25 mL glass vial and diluted with an aqueous mixture of 1.25% (v/v) ACTIROB® B esterified rapeseed oil (Bayer Crop Science, Research Triangle Park, N.C., USA) or MSO® Concentrate with LECI-TECH® methylated soybean oil (Loveland Products, Loveland, Colo., USA) to obtain concentrated stock solutions at the highest application rate for each herbicide, based upon a 12 milliliter (mL) application volume at a rate of 187 liters per hectare (L/ha). The concentrated stock solutions were further diluted with an aqueous mixture of 1.25% v/v ACTIROB® B or MSO® Concentrate with LECI-TECH® to obtain stock solutions at reduced application rates for each herbicide. Spray solutions of the herbicide combinations (Compound A or Compound B plus the CBI herbicide) were prepared by adding weighed amounts or aliquots of the CBI herbicide to the stock solutions of Compound A or Compound B to form 12-mL spray solutions in two-way combinations.
The spray solutions were applied to the plant material with an overhead Mandel track sprayer equipped with 8002E nozzles calibrated to deliver 187 L/ha over an application area of 0.503 square meters (m^2) at a spray height of 18 inches (43 centimeters (cm)) above the average plant canopy. Control plants were sprayed in the same manner with the solvent blank. All pyridine carboxylate herbicide (component a) application rates are given as “g ae/ha” and all CBI herbicide (component b) application rates are given as “g ai/ha.”
The treated plants and control plants were placed in a greenhouse as described above and watered by sub-irrigation to prevent wash-off of the test compounds. After 20-22 d, the condition of the test plants as compared with that of the control plants was determined visually and scored on a scale of 0 to 100 percent where 0 corresponds to no injury and 100 corresponds to complete kill.

N#CCOC(=O)c1nc(-c2ccc3cc[nH]c3c2F)c(F)c(N)c1Cl [Compound A, cyanomethyl 4-amino-3-chloro-5-fluoro-6-(7-fluoro-1H-indol-6-yl)pyridine-2-carboxylate]
Obs % visual injury (Table 3, Compound A 7.5 g/ha): 8%
Obs % visual injury (Table 3, Compound A 10 g/ha): 5%
Obs % visual injury (Table 3, Compound A 15 g/ha): 3%
Obs % visual injury (Table 4, Compound A 7.5 g/ha): 8%
Obs % visual injury (Table 4, Compound A 10 g/ha): 5%
Obs % visual injury (Table 4, Compound A 15 g/ha): 3%

— patent publication US20220000110A1, “COMPOSITIONS COMPRISING PYRIDINE CARBOXYLATE HERBICIDES AND CELLULOSE BIOSYNTHESIS INHIBITOR HERBICIDES” (priority 2018, published 2022)
